Values after ≈ are worked out from the molar mass of the structure shown.
Experiments:
KMS-12-BM = assay: Antitumor activity against human KMS-12-BM cells xenografted in SCID-bg mouse assessed as tumor growth inhibition at 100 mg/kg, po qd measured twice per week; format: functional; conditions: read-out: TGI
Mus musculus [1] = assay: In vivo inhibition of pan Pim in SCID-bg mouse xenografted with human KMS-12-BM cells assessed as phosphorylation of BAD peptide at Serine 112 residue at 50 mg/kg, po qd measured at 4 hrs post dose relative to control; format: functional; set-up: scale not given: the % may be the effect or the level left
Mus musculus [2] = assay: In vivo inhibition of pan Pim in SCID-bg mouse xenografted with human KMS-12-BM cells assessed as phosphorylation of BAD peptide at Serine 112 residue at 25 mg/kg, po qd measured at 4 hrs post dose relative to control; format: functional; set-up: scale not given: the % may be the effect or the level left
Mus musculus [3] = assay: In vivo inhibition of pan Pim in SCID-bg mouse xenografted with human KMS-12-BM cells assessed as phosphorylation of BAD peptide at Serine 112 residue at 10 mg/kg, po qd measured at 8 hrs post dose relative to control; format: functional; set-up: scale not given: the % may be the effect or the level left
[4] = target: Dual specificity protein kinase CLK4 (Homo sapiens) (UniProt Q9HAZ1); assay: Inhibition of human CLK4 (135 to 481 residues) expressed in bacterial system assessed as remaining enzyme activity at 1 uM by KINOMEScan assay relative to control
Chain of Dual specificity protein kinase CLK4 (Homo sapiens) (Q9HAZ1 whole entry, looked up, the tested form may be a part): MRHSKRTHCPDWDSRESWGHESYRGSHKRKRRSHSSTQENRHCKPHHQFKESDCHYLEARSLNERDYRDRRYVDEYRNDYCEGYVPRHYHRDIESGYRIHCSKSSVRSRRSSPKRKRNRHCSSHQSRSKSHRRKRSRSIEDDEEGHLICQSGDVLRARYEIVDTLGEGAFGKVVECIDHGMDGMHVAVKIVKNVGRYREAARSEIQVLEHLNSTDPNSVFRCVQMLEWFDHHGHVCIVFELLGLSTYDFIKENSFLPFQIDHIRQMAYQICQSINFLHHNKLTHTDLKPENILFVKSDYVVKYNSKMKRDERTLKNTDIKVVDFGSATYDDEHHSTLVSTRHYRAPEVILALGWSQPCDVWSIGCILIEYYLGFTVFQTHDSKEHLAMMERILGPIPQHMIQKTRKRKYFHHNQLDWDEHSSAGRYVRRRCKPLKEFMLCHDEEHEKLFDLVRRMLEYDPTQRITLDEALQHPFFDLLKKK

Mus musculus [5] = assay: In vivo inhibition of pan Pim in SCID-bg mouse xenografted with human KMS-12-BM cells assessed as phosphorylation of BAD peptide at Serine 112 residue at 25 mg/kg, po qd measured at 8 hrs post dose relative to control; format: functional; set-up: scale not given: the % may be the effect or the level left
[6] = target: T1, Mitogen-activated protein kinase kinase kinase 19 (Homo sapiens) (UniProt Q56UN5); assay: Inhibition of human YSK4 (1019 to 1328 residues) expressed in mammalian system assessed as remaining enzyme activity at 1 uM by KINOMEScan assay relative to control
T1 sequence (whole entry): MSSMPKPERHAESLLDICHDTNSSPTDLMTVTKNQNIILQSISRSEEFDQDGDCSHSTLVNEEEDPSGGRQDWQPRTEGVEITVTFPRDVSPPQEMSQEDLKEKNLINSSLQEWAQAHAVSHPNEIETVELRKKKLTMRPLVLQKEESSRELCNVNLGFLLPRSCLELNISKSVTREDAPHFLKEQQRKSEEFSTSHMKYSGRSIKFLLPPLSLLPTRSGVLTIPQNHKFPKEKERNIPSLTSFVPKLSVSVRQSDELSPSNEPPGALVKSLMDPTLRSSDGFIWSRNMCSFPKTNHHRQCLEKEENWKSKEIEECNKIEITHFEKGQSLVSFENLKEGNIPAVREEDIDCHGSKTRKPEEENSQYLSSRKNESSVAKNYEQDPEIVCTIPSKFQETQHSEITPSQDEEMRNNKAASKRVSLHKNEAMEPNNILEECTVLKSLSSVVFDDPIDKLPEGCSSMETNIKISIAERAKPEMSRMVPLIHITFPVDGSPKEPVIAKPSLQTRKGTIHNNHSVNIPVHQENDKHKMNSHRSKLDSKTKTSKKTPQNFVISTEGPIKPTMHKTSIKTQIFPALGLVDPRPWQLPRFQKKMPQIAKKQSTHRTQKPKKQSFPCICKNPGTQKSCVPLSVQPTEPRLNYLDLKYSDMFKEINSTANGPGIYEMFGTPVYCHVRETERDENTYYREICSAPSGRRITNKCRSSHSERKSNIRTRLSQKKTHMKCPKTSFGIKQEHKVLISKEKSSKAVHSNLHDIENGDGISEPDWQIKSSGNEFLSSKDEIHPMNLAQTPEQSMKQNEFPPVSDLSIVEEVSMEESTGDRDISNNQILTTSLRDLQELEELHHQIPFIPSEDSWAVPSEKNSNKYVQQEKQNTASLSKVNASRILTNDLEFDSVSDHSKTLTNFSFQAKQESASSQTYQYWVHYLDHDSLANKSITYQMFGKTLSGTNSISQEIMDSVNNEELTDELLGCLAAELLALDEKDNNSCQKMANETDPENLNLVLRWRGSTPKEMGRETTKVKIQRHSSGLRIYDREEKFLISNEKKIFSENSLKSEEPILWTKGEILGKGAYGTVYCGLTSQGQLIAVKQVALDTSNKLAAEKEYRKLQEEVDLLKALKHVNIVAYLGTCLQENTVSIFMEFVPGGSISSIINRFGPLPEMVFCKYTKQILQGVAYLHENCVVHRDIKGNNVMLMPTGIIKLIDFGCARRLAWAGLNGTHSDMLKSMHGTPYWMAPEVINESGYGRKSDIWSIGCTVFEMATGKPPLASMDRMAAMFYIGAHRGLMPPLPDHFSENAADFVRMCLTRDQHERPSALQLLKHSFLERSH

Mus musculus [7] = assay: In vivo inhibition of pan Pim in SCID-bg mouse xenografted with human KMS-12-BM cells assessed as phosphorylation of BAD peptide at Serine 112 residue at 10 mg/kg, po qd measured at 4 hrs post dose relative to control; format: functional; set-up: scale not given: the % may be the effect or the level left
[8] = Aqueous solubility of the compound in FaSIF at pH 6.8 after 1 hr by LC/MS analysis
[9] = Volume of distribution at steady state in rat at 2 mg/kg, iv or 5 mg/kg, po; format: ADME, organism-based; conditions: in vivo, read-out: Vdss
Mus musculus [10] = assay: In vivo inhibition of pan Pim in SCID-bg mouse xenografted with human KMS-12-BM cells assessed as phosphorylation of BAD peptide at Serine 112 residue at 100 mg/kg, po qd measured at 1 hr post dose relative to control; format: functional; set-up: scale not given: the % may be the effect or the level left
[11] = Fraction unbound in mouse plasma; format: ADME, cell-free
[12] = Oral bioavailability in rat at 5 mg/kg; format: ADME, organism-based; conditions: in vivo
Mus musculus [13] = assay: In vivo inhibition of pan Pim in SCID-bg mouse xenografted with human KMS-12-BM cells assessed as phosphorylation of BAD peptide at Serine 112 residue at 50 mg/kg, po qd measured at 1 hr post dose relative to control; format: functional; set-up: scale not given: the % may be the effect or the level left
[14] = target: Casein kinase II subunit alpha (Homo sapiens) (UniProt P68400); assay: Inhibition of full length human CSNK2A1 expressed in mammalian system assessed as remaining enzyme activity at 1 uM by KINOMEScan assay relative to control
Chain of Casein kinase II subunit alpha (Homo sapiens) (P68400 whole entry, looked up): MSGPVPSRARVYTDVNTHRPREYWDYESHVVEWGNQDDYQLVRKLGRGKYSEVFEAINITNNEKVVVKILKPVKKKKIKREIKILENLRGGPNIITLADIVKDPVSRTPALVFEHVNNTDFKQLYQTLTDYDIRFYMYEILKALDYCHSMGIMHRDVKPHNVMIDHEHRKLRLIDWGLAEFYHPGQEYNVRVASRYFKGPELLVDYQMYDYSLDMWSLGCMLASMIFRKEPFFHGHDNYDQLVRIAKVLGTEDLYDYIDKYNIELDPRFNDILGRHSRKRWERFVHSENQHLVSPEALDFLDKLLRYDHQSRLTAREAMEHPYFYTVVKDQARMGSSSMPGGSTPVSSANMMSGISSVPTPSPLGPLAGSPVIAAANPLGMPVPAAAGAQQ

Mus musculus [15] = assay: In vivo inhibition of pan Pim in SCID-bg mouse xenografted with human KMS-12-BM cells assessed as phosphorylation of BAD peptide at Serine 112 residue at 10 mg/kg, po qd measured at 24 hrs post dose relative to control; format: functional; set-up: scale not given: the % may be the effect or the level left
[16] = Apparent permeability in pig LLC-PK1 cells; format: ADME, cell-based, Sus scrofa
Mus musculus [17] = assay: In vivo inhibition of pan Pim in SCID-bg mouse xenografted with human KMS-12-BM cells assessed as phosphorylation of BAD peptide at Serine 112 residue at 25 mg/kg, po qd measured at 12 hrs post dose relative to control; format: functional; set-up: scale not given: the % may be the effect or the level left
Bos taurus = organism: Bos taurus; assay: Inhibition of bovine I1-receptor assessed as remaining enzyme activity at 10 uM relative to untreated control

In the case of `C[C@H]1NC(=O)c2cc(-c3cccc4c(=O)n(C)c(NC(C)(C)C)nc34)[nH]c21`, the inhibition in vivo at 100 mg/kg (KMS-12-BM) is reported as 95%, the Activity (Mus musculus [1]) is reported as 66% and the Activity (Mus musculus [2]) is reported as 60%. The Activity (Mus musculus [3]) was 41%, the Activity [4] was 0.2% and the Activity (Mus musculus [5]) was 60%. The Activity [6] was 0.4%, the Activity (Mus musculus [7]) was 50% and the solubility at 1 h [8] was 104 µM (≈ 38 µg/mL). For the same compound, the Vd [9] was 1.5 L/kg, the Activity (Mus musculus [10]) was 61% and the “Cp(f)” value [11] was 21.4 nM. The bioavailability [12] was 39%, the Activity (Mus musculus [13]) was 61% and the Activity [14] was 3.5%. For the same compound, the Activity (Mus musculus [15]) was 0%, the Papp [16] was 44 ×10⁻⁶ cm/s and the Activity (Mus musculus [17]) was 37%. For the same compound, the Activity (Bos taurus) was less than 10%.

Reference: ChEMBL document CHEMBL4477213, “Discovery and Optimization of Quinazolinone-pyrrolopyrrolones as Potent and Orally Bioavailable Pan-Pim Kinase Inhibitors” (J Med Chem, 2016)
